In patent US9694090B2, “Process for preparing hyperpolarized substrates and method for MRI” (priority 2010, dated 2017):
Values belong to the compound of their own block, whether it stands above or below them.

Legend:
[1] = Glass formation of the DNP preparation upon rapid freezing in liquid nitrogen; type: physicochemical
Protocol: Butyric acid (11.7 mg, 0.13 mmol) was placed into an Eppendorf tube and mixed with 9.0 mg of a glycerol solution containing 39 mM of Radical 1. This preparation was 7 M with respect to butyric acid.
Butyric anhydride (40 μl, 0.24 mmol) was added to an Eppendorf tube and mixed with 1 mg of Radical 3 in a total concentration of 15 mM. This preparation was 6.5 M with respect to butyric anhydride (which, upon hydrolysis provides a 13 M concentration in butyric acid molecules).
Butyric acetic anhydride (36 μl, 0.28 mmol) was added to an Eppendorf tube and mixed with 0.85 mg of acid form of Radical 3 in a total concentration of 15 mM. This preparation was 7.5 M with respect to butyric acetic acid.
Li-acetoacetate (22.4 mg, 0.21 mmol) was added to an Eppendorf tube and mixed with 28 μl of a DMSO preparation (25 mM Radical 3 and 0.8 mM 3-Gd). This preparation was 4 M with respect to Li-acetoacetate.
To an Eppendorf tube was added diketene (9.6 mg, 0.11 mmol) and mixed with 4.7 mg of a DMSO preparation of Radical 3 (45 mM) and 3-Gd (1.5 mM). This preparation was 8.5 M with respect to diketene.
Ethyl acetoacetate (45 μl, 0.34 mmol) was added to an Eppendorf tube and mixed with acid form of Radical 2 (0.7 mg, 0.65 μmol) in a total concentration of 15 mM. This preparation was 8 M with respect to ethyl acetoacetate.
Cis-aconitic acid (18.6 mg, 0.11 mmol) was added to an Eppendorf tube and mixed with a 32.5 μl DMSO preparation (25 mM Radical 3 and 0.8 mM 3-Gd). This preparation was 2.5 M with respect to cis-aconitic acid.
Cis-aconitic anhydride (188 mg, 1.2 mmol) was added to an Eppendorf tube and mixed with 2.85 mg (2 μmol) of Radical 1 and 0.98 mg of a 83 μmol/g solution of 3-Gd. This preparation was 9 M with respect to cis-aconitic anhydride.
Succinic acid (42.1 mg, 0.35 mmol) was added to an Eppendorf tube and mixed and mixed with 92 mg of a DMSO preparation (20 mM Radical 3 and 0.8 mM 3-Gd). This preparation was 4 M with respect to succinic acid.
Succinic anhydride (21.5 mg, 0.21 mmol) was added to an Eppendorf tube and mixed with 21.8 mg of a DMSO solution of Radical 3 (30 mM) and of 3-Gd (1 mM). This preparation was 6 M with respect to succinic anhydride.
Succinic-(1)-ethyl ester (111 mg, 0.75 mmol) was added to an Eppendorf tube and mixed with the carboxylic acid form of Radical 2 (2.4 mg, 1.5 μmol) and 3-Gd (3.4 μl of a 14.5 mM solution in water). This preparation was 6 M with respect to succinic-(1)-ethyl ester.
(§1) L-Glutamine (50.9 mg, 0.35 mmol) was added to an Eppendorf tube and dissolved in 29 μl of 12 M NaOH and mixed with 1.7 mg of radical 1 and 3-Gd (2.3 μl of a 14.5 mM water stock solution). This preparation was 4 M with respect to L-glutamine.

[2] = DNP solid-state polarization signal and build-up (1.2 K, 3.35 T); settings: DNP at 1.2 K
Protocol: To this solution 1.1 mg (0.77 μmol) radical 1 was added. […] This entire sample was hyperpolarized under DNP conditions at 1.2 K in a 3.35 T magnetic field under irradiation with microwave (93.900 GHz) until the polarization was fully build-up. The polarization was monitored in solid state with small pulse angles (5 degree) collected every 300 s.
This entire sample was polarized under DNP conditions at 1.2 K in a 3.35 T magnetic field under irradiation with microwave (93.900 GHz) until the polarization was fully built-up. The polarization was monitored in solid state with small pulse angles (5 degree) collected every 300 s.
To this solution 0.77 mg (0.54 μmol) radical 1 was added. […] This entire sample was polarized under DNP conditions at 1.2 K in a 3.35 T magnetic field under irradiation with microwave (93.900 GHz) until the polarization was fully built-up. The polarization was monitored in solid state with small pulse angles (5 degree) collected every 300 s.
To this solution 1.65 mg (1.15 μmol) radical 1 was added. […] This entire sample was polarized under DNP conditions at 1.2 K in a 3.35 T magnetic field under irradiation with microwave (93.900 GHz) until the polarization was fully built-up. The polarization was monitored in solid state with small pulse angles (5 degree) collected every 300 s.
63.2 mg (0.33 mmol) of this sample was hyperpolarized under DNP conditions at 1.2 K in a 3.35 T magnetic field under irradiation with microwave (93.900 GHz) until the polarization was fully built-up.

[3] = T1 relaxation time in solution at 14.1 T; type: physicochemical; settings: for High field liquid state T1: 14.1 T magnet, phosphate buffer, pH 7.1-7.2
Protocol: The ester was only partly hydrolyzed.
The T1 of the hydrolyzed product, succinate is 33 s (14.1 T and 37° C.).
The sample was dissolved in 5 ml phosphate buffer (100 mM, pH 7) with added one equivalent HCl. The pH is 7.1 after dissolution.
The pH is 7.2 after dissolution.

[4] = Hydrolysis of the DNP hyperpolarized precursor on dissolution with strong base, followed by 13C-NMR time series; type: physicochemical
Protocol: (§2) The composition from example 1b (25 mg, 0.16 mmol) was transferred from the Eppendorf tube to a sample cup and the sample cup was inserted into a DNP polariser. The composition was hyperpolarised under DNP conditions at 1.2 K in a 3.35 T magnetic field under irradiation with microwave (93.915 GHz). The sample was hyperpolarized for 75 min.
The sample was dissolved in 4 ml water with added NaOH (50 μl of 12M solution). The pH of the dissolved sample was 12. The solution was collected directly into a 10 mm NMR tube and transferred to a 14.1 T magnet where a time series of 5 degree 1D 13C-NMR spectra were recorded with a total delay between the pulses of 1 s.
as §2, with “is (33” for “1b (25”, “0.25” for “0.16”, “90” for “75”
The sample was dissolved in 5 ml water with added NaOH (125 μl of 12M). The solution was collected directly into a 10 mm NMR tube and transferred to a 14.1 […]) T magnet where a time series of 5 degree 1D 13C-NMR spectra were recorded with a total delay between the pulses of 1 s.
(§3) The entire composition from example 2b was transferred from the Eppendorf tube to a sample cup and the sample cup was inserted into a DNP polariser. The composition was hyperpolarised under DNP conditions at 1.2 K in a 3.35 T magnetic field under irradiation with microwave (93.915 GHz). The sample was hyperpolarized for 3 hours.
(§4) The sample was dissolved in 5 ml water with added NaOH (125 μl of 12 M). The solution was collected directly into a 10 mm NMR tube and transferred to a 14.1 T magnet (pH 13) where a time series of 64 five degree 1D 13C-NMR spectra were recorded with a total delay between the pulses of 3 s.
as §2, with “is (20.5” for “1b (25”, “2 hours.” for “75 min.”
(§5) The sample was dissolved in 5 ml water with added NaOH (200 μl of 12 M). The solution was collected directly into a 10 mm NMR tube and transferred to a 14.1 T magnet (pH 12.8) where a time series of 5 degree 1D 13C-NMR spectra were recorded with a total delay between the pulses of 3 s.
as §3, with “The” for “The entire”, “2b was melted on a water-bath and stirred with a magnetic stirrer. 45 mg of this preparation (0.29 mmol)” for “2b”, “90 min.” for “3 hours.”
(§6) The sample was dissolved in 6 ml water with added NaOH (190 μl of 12 M). The solution was collected directly into a 10 mm NMR tube and transferred to a 14.1 T magnet (pH 12.8) where a time series of 64 five degree 1D 13C-NMR spectra were recorded with a total delay between the pulses of 3 s.

[5] = Degradation / isomerisation of the substrate in DNP preparation and dissolution (NMR)
Protocol: as §3, with “2a” for “2b”, “75 min.” for “3 hours.”
The sample was dissolved in 5 ml phosphate buffer pH 7.3 (40 mM+EDTA).
The solution was collected directly into a 10 mm NMR tube and transferred to a 14.1 T magnet where a 90 degree 1D 13C-NMR spectrum was recorded.
as §4, §5
The sample was dissolved in 5 ml 40 mM phosphate buffer pH 7.3+100 mg/l EDTA, thus resulting in an ester concentration of 20 mM. 1 ml of the ester solution was injected through a transfer line into a 10 mm NMR tube placed at 14.1 T and 37° C. The 10 mm NMR tube contained a 500 μl solution of approximately 270 U of a carboxylic-ester hydrolase from porcine liver. A time series of 10 degree 1D 13C-NMR spectra were recorded with a total delay between the pulses of 3 s.
as §5, with “phosphate buffer (40 mM, pH 7.3)” for “water”, “30” for “NaOH (200”, “μl” for “μl of”, “M NaOH. […]” for “M).”, “magnet” for “magnet (pH 12.8)”
as §6, §1
N-acetyl-L-glutamine (57.2 mg, 0.3 mmol) was added to an Eppendorf tube and dissolved in 25.3 μl of 12 M NaOH and mixed with 1.9 mg of radical 1 and 3-Gd (2.3 μl of a 14.5 mM water stock solution).

[6] = with trityl radical, without addition of glass-forming agents
[7] = dissolved in 12 M NaOH with radical 1
[8] = after 15 s, strong base (NaOH or NaOD), pH 11-12.2
[9] = after 10 s, water with added NaOH, pH 12-13
[10] = mixed with DMSO preparation of Radical 3
[11] = after 20 s, water with added NaOH, pH 12.9-13

Compound: C=C(CC(=O)OCC)[13C](=O)OCC [1-13C Itaconate diethyl ester]
Glass formation upon rapid freezing [1, 6]: formed a glass
Polarization build-up time constant [2]: 2120 s

Compound: [2H][13C]([2H])(N)C(=O)O [2-13C-d2-Glycine, reference compound]
High field liquid state T1 [3]: 46 s
Glass formation upon rapid freezing in liquid nitrogen [1, 7]: forms a glass

Compound: [2H][13C]([2H])(NC(C)=O)C(=O)O [2-13C-d2-N-acetyl glycine]
High field liquid state T1 [3]: 40 s
Glass formation upon rapid freezing in liquid nitrogen [1, 7]: formed a glass

Compound: CCOC(=O)C(=O)CCC(=O)O [2-oxoglutaric-(1)-ethyl ester]
Glass formation upon rapid freezing [1, 6]: formed a glass
Precursor hydrolyzed [4, 8]: at least 95%

Compound: CCCC(=O)OC(C)=O [Butyric acetic anhydride]
Glass formation upon rapid freezing [1, 6]: formed a glass
Precursor hydrolyzed [4, 9]: at least 95%

Compound: CCCC(=O)O [Butyric acid, reference compound]
Glass formation upon rapid freezing in liquid nitrogen ([1]; mixed with glycerol solution of Radical 1): formed a glass
Glass formation upon rapid freezing [1, 6]: crystallizes

Compound: CCCC(=O)OC(=O)CCC [Butyric anhydride]
Glass formation upon rapid freezing [1, 6]: formed a glass
Precursor hydrolyzed [4, 9]: at least 95%

Compound: O=C(O)/C=C(/CC(=O)O)C(=O)O [Cis-aconitic acid, reference compound]
Glass formation upon rapid freezing in liquid nitrogen [1, 10]: formed a glass
Amount of trans isomer of aconitate ([5]; after DNP and dissolution in phosphate buffer with NaOH, pH 7.2): about 10%

Compound: CC(=O)CC(=O)[O-].[Li+] [Li-acetoacetate, reference compound]
Glass formation upon rapid freezing in liquid nitrogen [1, 10]: formed a glass
Amount of degradation (decarboxylation) ([5]; 1H NMR on DNP sample following dissolution in phosphate buffer pH 7.3): 40%

Compound: O=C(O)CCC(=O)O [Succinic acid, reference compound]
Glass formation upon rapid freezing in liquid nitrogen [1, 10]: formed a glass

Compound: CC(=O)CC(=O)O [acetoacetate]
T1 of the C1 position in the hydrolyzed product ([3]; 14.1 T and 37° C.): 32 s
T1 of the hydrolyzed product ([3]; 14.1 T and 37° C.): 32 s
Degradation (decarboxylation) of acetoacetate formed ([5]; after esterase hydrolysis of ethyl acetoacetate, pH 7.3): No degradation
Degradation (decarboxylation) of acetoacetate formed ([5]; after hydrolysis of precursor with NaOH, pH 12.8-13): No substantial degradation

Compound: O=C(O)/C=C(/CC(=O)O)C(=O)O [cis-aconitate]
T1 of the hydrolyzed product ([3]; 14.1 T and 37° C.): 24 s

Compound: C=C1CC(=O)O1 [diketene, 4-Methylideneoxetan-2-one]
Glass formation upon rapid freezing in liquid nitrogen [1, 10]: formed a glass
Precursor hydrolyzed [4, 9]: at least 95%

Compound: O=C(O)CCC(=O)O [succinate]
T1 of the hydrolyzed product ([3]; 14.1 T and 37° C.): 33 s

Second part, the compound after the results:

Glass formation upon rapid freezing ([1]; absence of a glass forming additive, Example 1d (Prophetic)): forms a glass
Compound: CCCC(=O)OC(=O)OCC [Butyric ethylcarbonic anhydride]

Glass formation upon rapid freezing [1, 6]: formed a glass
Precursor hydrolyzed [4, 9]: at least 95%
Presence of trans-aconitate ([5]; after DNP and hydrolysis with NaOH, pH 12.8): neglectable
Compound: O=C(O)CC1=CC(=O)OC1=O [Cis-aconitic anhydride, cis-Aconitic anhydride]

Precursor hydrolyzed ([4]; in less than 10 s, water with added NaOH, pH 11-12.6): at least 95%
Compound: CCOC(=O)C1CSC(=O)N1 (centres unmarked) [Ethyl OTZ, 2-Oxothiazolidine-4-carboxylic ethyl ester]

Glass formation upon rapid freezing [1, 6]: formed a glass
Precursor hydrolyzed [4, 8]: at least 95%
Compound: CCOC(=O)C(N)Cc1ccccc1 (centres unmarked) [Ethyl phenylalanine]

Glass formation upon rapid freezing in liquid nitrogen [1, 7]: formed a glass
Amount of degradation in the DNP preparation ([5]; 4 M): 14%
Compound: NC(=O)CC[C@H](N)C(=O)O [L-Glutamine, reference compound]

Glass formation upon rapid freezing in liquid nitrogen [1, 7]: formed a glass
Compound: N[C@@H](Cc1ccccc1)C(=O)O [L-Phenylalanine, reference compound]

Glass formation upon rapid freezing in liquid nitrogen [1, 10]: formed a glass
Compound: O=C(O)CC(O)C(=O)O (centres unmarked) [Malic acid, reference compound]

Glass formation upon rapid freezing [1, 6]: formed a glass
Precursor hydrolyzed [4, 11]: at least 95%
Compound: CCOC(=O)C(O)CC(=O)O (centres unmarked) [Malic-(1)-ethyl ester]

Glass formation upon rapid freezing in liquid nitrogen [1, 10]: formed a glass
Precursor hydrolyzed [4, 9]: at least 95%
Compound: O=C1CCC(=O)O1 [Succinic anhydride]

Glass formation upon rapid freezing [1, 6]: formed a glass
Precursor hydrolyzed [4, 11]: at least 95%
Compound: CCOC(=O)CCC(=O)O [Succinic-(1)-ethyl ester]
